The source made the active and inactive calls.
Tests used:
HT-1080 [1] = experiment: Induction of TBK1 phosphorylation in STING - knockout human HT1080 cells at 20 uM measured after 5 hrs by Western blot analysis; format: functional, cell-based
HT-1080 [2] = experiment: Induction of TBK1 phosphorylation in human HT1080 cells at 20 uM measured after 5 hrs by Western blot analysis; format: functional, cell-based
[3] = target: T1, Stimulator of interferon genes protein (Mus musculus) (UniProt Q3TBT3); experiment: Agonist activity at STING in mouse BMDC cells assessed as change in TBK1 phosphorylation (initially increase and then decreased) at 20 uM measured after 5 hrs by Western blot analysis; format: cell-based; conditions: filed as agonist
T1 sequence (whole entry): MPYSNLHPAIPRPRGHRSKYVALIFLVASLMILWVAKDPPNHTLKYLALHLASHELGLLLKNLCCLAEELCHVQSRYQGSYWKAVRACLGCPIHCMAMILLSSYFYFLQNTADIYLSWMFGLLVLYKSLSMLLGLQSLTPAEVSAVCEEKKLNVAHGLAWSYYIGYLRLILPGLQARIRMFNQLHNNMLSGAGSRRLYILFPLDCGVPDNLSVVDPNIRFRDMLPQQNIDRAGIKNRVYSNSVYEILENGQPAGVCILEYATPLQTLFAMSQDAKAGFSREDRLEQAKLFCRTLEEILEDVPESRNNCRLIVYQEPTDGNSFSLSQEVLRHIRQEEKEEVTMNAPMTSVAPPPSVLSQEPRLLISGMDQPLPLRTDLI

[4] = target: T1, Stimulator of interferon genes protein (Mus musculus); experiment: Agonist activity at STING in mouse BMDM cells assessed as change in TBK1 phosphorylation (initially increase and then decreased) at 20 uM measured after 5 hrs by Western blot analysis; format: cell-based; conditions: filed as agonist
[5] = target: Stimulator of interferon genes protein (Homo sapiens) (UniProt Q86WV6); experiment: Induction of STING-dependent gene expression in human HT-1080 cells assessed as IFNbeta mRNA expression at 20 uM incubated for 8 hrs by qRT-PCR analysis; format: cell-based; conditions: filed as agonist
[6] = target: T1, Stimulator of interferon genes protein (Mus musculus); experiment: Induction of STING dimerization in mouse BMDC cells assessed as dimerization (initially increase and then decreased) at 2.5 to 20 uM measured after 5 hrs by Western blot analysis; format: cell-based; conditions: filed as agonist, dose 2.5-20 µM
[7] = target: T1, Stimulator of interferon genes protein (Mus musculus); experiment: Induction of STING dimerization in mouse BMDM cells assessed as dimerization (initially increase and then decreased) at 2.5 to 20 uM measured after 5 hrs by Western blot analysis; format: cell-based; conditions: filed as agonist, dose 2.5-20 µM
[8] = target: Stimulator of interferon genes protein (Homo sapiens) (UniProt Q86WV6); experiment: Induction of STING-dependent gene expression in human HT-1080 cells assessed as IFNalpha mRNA expression at 20 uM incubated for 8 hrs by qRT-PCR analysis; format: cell-based; conditions: filed as agonist
[9] = target: T1, Stimulator of interferon genes protein (Mus musculus); experiment: Induction of STING-dependent gene expression in mouse BMDC cells assessed as IFNalpha mRNA expression at 20 uM incubated for 8 hrs by qRT-PCR analysis; format: cell-based; conditions: filed as agonist
[10] = target: T1, Stimulator of interferon genes protein (Mus musculus); experiment: Induction of STING-dependent gene expression in mouse BMDC cells assessed as IFNbeta mRNA expression at 20 uM incubated for 8 hrs by qRT-PCR analysis; format: cell-based; conditions: filed as agonist
[11] = target: Stimulator of interferon genes protein (Homo sapiens) (UniProt Q86WV6); experiment: Induction of oligomerization of STING in HEK-293T cells stably expressing STING-Flag ( unknown origin) measured after 4 hrs by immunoprecipitation assay; format: cell-based; conditions: filed as agonist
Mus musculus [12] = experiment: Induction of immune-activation effect in wild type female BALB/c mouse assessed as increase in serum TNFalpha level at 15 to 30 mg/kg, ip measured after 24 to 48 hrs by ELISA relative to control; format: functional, organism-based; conditions: dose 15-30 mg/kg, time 24-48 hrs
Mus musculus [13] = experiment: Induction of immune-activation effect in wild type female BALB/c mouse assessed as increase in serum IFNbeta level at 15 to 30 mg/kg, ip measured after 24 to 48 hrs by ELISA relative to control; format: functional, organism-based; conditions: dose 15-30 mg/kg, time 24-48 hrs

Measured: Activity

Stimulator of interferon genes protein (Homo sapiens), sequence (Q86WV6 whole entry): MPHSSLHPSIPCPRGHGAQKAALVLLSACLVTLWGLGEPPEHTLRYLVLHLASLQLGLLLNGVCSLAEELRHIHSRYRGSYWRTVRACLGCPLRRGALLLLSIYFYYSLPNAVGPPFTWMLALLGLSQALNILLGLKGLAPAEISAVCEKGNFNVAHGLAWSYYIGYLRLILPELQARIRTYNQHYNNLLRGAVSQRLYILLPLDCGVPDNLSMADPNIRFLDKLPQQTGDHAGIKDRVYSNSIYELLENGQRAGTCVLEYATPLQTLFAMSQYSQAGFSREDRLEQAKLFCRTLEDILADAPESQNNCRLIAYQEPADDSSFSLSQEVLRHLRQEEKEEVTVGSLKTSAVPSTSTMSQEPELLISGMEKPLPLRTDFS

O=C(NCCNCCNC(=O)c1ccc([N+](=O)[O-])s1)c1ccc([N+](=O)[O-])s1
active: HT-1080 [1] | HT-1080 [2]

O=C(NCCCCCCCCCNC(=O)c1ccc([N+](=O)[O-])o1)c1ccc([N+](=O)[O-])o1
not listed: HT-1080 [1] | HT-1080 [2] | Mus musculus [12] | Mus musculus [13]
active: all other assays above

O=C(NCCCCCCCCNC(=O)c1ccc([N+](=O)[O-])o1)c1ccc([N+](=O)[O-])o1
not listed: HT-1080 [1] | HT-1080 [2]
active: all other assays above

From ChEMBL document CHEMBL5385872, “Design and syntheses of a bimolecular STING agonist based on the covalent STING antagonist” (Eur J Med Chem, 2023)
